Assay results published in the NIST ThermoML archive (doi:10.1016/j.jct.2007.05.011).

Assay: xn = mol fraction of the nth substance listed
Conditions: 101 kPa, Liquid; for mass density: Vibrating tube method

NCCO.O=CO [2-hydroxyethylammonium formate] + CCO
Conditions	mass density [kg/m3]	speed of sound [m/s]
305.65 K, x2 = 0	–	1690.8
305.65 K, x2 = 0.058	–	1704.7
305.65 K, x2 = 0.098	–	1685.5
305.65 K, x2 = 0.193	–	1642.7
305.65 K, x2 = 0.296	–	1598.7
305.65 K, x2 = 0.399	–	1545.2
305.65 K, x2 = 0.5	–	1485.4
305.65 K, x2 = 0.598	–	1421.8
305.65 K, x2 = 0.701	–	1353.1
305.65 K, x2 = 0.799	–	1281.3
305.65 K, x2 = 0.9	–	1206.1
305.65 K, x2 = 0.95	–	1165.7
308.15 K, x2 = 0	1169.39	1684.8
308.15 K, x2 = 0.058	1159.76	1699.5
308.15 K, x2 = 0.098	1147.72	1680.2
308.15 K, x2 = 0.193	1122.18	1637.3
308.15 K, x2 = 0.296	1096.28	1593
308.15 K, x2 = 0.399	1065.47	1539.2
308.15 K, x2 = 0.5	1030.18	1479.2
308.15 K, x2 = 0.598	991.781	1415.2
308.15 K, x2 = 0.701	948.127	1346.1
308.15 K, x2 = 0.799	898.707	1274
308.15 K, x2 = 0.9	842.788	1198.3
308.15 K, x2 = 0.95	811.783	1157.6
310.65 K, x2 = 0	1167.62	1678.7
310.65 K, x2 = 0.058	1158.11	1694.4
310.65 K, x2 = 0.098	1146.06	1674.9
310.65 K, x2 = 0.193	1120.49	1631.8
310.65 K, x2 = 0.296	1094.56	1587.4
310.65 K, x2 = 0.399	1063.71	1533.3
310.65 K, x2 = 0.5	1028.38	1473
310.65 K, x2 = 0.598	989.927	1408.7
310.65 K, x2 = 0.701	946.21	1339.3
310.65 K, x2 = 0.799	896.716	1266.7
310.65 K, x2 = 0.9	840.709	1190.5
310.65 K, x2 = 0.95	809.653	1149.5
313.15 K, x2 = 0	1165.84	1672.7
313.15 K, x2 = 0.058	1156.45	1689.2
313.15 K, x2 = 0.098	1144.4	1669.8
313.15 K, x2 = 0.193	1118.8	1626.3
313.15 K, x2 = 0.296	1092.84	1581.7
313.15 K, x2 = 0.399	1061.95	1527.4
313.15 K, x2 = 0.5	1026.57	1466.8
313.15 K, x2 = 0.598	988.066	1402.2
313.15 K, x2 = 0.701	944.29	1332.3
313.15 K, x2 = 0.799	894.718	1259.3
313.15 K, x2 = 0.9	838.621	1182.7
313.15 K, x2 = 0.95	807.511	1141.4
315.65 K, x2 = 0	1164.06	1666.7
315.65 K, x2 = 0.058	1154.81	1684.1
315.65 K, x2 = 0.098	1142.73	1664.5
315.65 K, x2 = 0.193	1117.11	1620.9
315.65 K, x2 = 0.296	1091.12	1576
315.65 K, x2 = 0.399	1060.19	1521.5
315.65 K, x2 = 0.5	1024.77	1460.5
315.65 K, x2 = 0.598	986.208	1395.6
315.65 K, x2 = 0.701	942.365	1325.5
315.65 K, x2 = 0.799	892.716	1252
315.65 K, x2 = 0.9	836.524	1174.9
315.65 K, x2 = 0.95	805.362	1133.4
318.15 K, x2 = 0	1162.29	1660.8
318.15 K, x2 = 0.058	1153.16	1679
318.15 K, x2 = 0.098	1141.07	1659.2
318.15 K, x2 = 0.193	1115.42	1615.5
318.15 K, x2 = 0.296	1089.4	1570.4
318.15 K, x2 = 0.399	1058.44	1515.6
318.15 K, x2 = 0.5	1022.96	1454.4
318.15 K, x2 = 0.598	984.346	1389.2
318.15 K, x2 = 0.701	940.437	1318.7
318.15 K, x2 = 0.799	890.71	1244.8
318.15 K, x2 = 0.9	834.423	1167.2
318.15 K, x2 = 0.95	803.205	1125.4
320.65 K, x2 = 0	1160.51	1654.8
320.65 K, x2 = 0.058	1151.51	1673.9
320.65 K, x2 = 0.098	1139.41	1654
320.65 K, x2 = 0.193	1113.73	1610.1
320.65 K, x2 = 0.296	1087.69	1564.8
320.65 K, x2 = 0.399	1056.68	1509.9
320.65 K, x2 = 0.5	1021.15	1448.2
320.65 K, x2 = 0.598	982.484	1382.8
320.65 K, x2 = 0.701	938.509	1311.8
320.65 K, x2 = 0.799	888.697	1237.6
320.65 K, x2 = 0.9	832.314	1159.5
320.65 K, x2 = 0.95	801.039	1117.5
323.15 K, x2 = 0	1158.73	1648.9
323.15 K, x2 = 0.058	1149.88	1668.8
323.15 K, x2 = 0.098	1137.78	1648.8
323.15 K, x2 = 0.193	1112.06	1604.7
323.15 K, x2 = 0.296	1085.98	1559.4
323.15 K, x2 = 0.399	1054.93	1504.2
323.15 K, x2 = 0.5	1019.35	1442.1
323.15 K, x2 = 0.598	980.632	1376.5
323.15 K, x2 = 0.701	936.584	1305.1
323.15 K, x2 = 0.799	886.69	1230.5
323.15 K, x2 = 0.9	830.212	1152
323.15 K, x2 = 0.95	798.879	1109.7
